For the experiment, the target named is QPCTL (Homo sapiens (Human), UniProt Q9NXS2). The experiment in a line: QPCTL inhibition, SensoLyte Green Glutaminyl Cyclase Activity Assay. Type of experiment: biochemical. The note with it: 0.8 nM 2x enzyme solution, 45 min at 37° C., 50 mM Tris pH 8.0, 1% DMSO. The method, then:
Preparation of working solution: 2×Glutaminyl Cyclase substrate was diluted in assay buffer to […]. 2×enzyme solution and QPCTL was diluted in assay buffer to 0.8 nM. Glutaminyl Cyclase Developer was diluted in assay buffer to 1×(containing 10 mM 1-Benzyl-Imidazole). Serial dilution of test compounds was performed in DMSO. The final DMSO concentration in 100 μl reaction was 1%. The assay buffer was 50 mM Tris, pH 8.0, 0.01% BSA.
Procedure: 50 μL of 2×Glutaminyl Cyclase substrate solution was added into the assay plate followed by 50 μL of 2×enzyme solution. The plate was centrifuged for 1 min at 1000 rmp. Next the plate was incubated for 45 minutes at 37° C. This was followed by the additional of 50 μL of the prepared Glutaminyl Cyclase developer and incubated for additional 30 min at 37° C. Results were read on SpectraMax Paradigm detecting with emission at Ex/Em=490 nm/520 nm.
A Z′ value was calculated for each assay plate. The Z′ value must be >0.5 or the plate was disqualified. […] Results were calculated using GraphPad Prism 7 software is used for IC50 determination.
Chain of QPCTL (Q9NXS2 whole entry, species assumed): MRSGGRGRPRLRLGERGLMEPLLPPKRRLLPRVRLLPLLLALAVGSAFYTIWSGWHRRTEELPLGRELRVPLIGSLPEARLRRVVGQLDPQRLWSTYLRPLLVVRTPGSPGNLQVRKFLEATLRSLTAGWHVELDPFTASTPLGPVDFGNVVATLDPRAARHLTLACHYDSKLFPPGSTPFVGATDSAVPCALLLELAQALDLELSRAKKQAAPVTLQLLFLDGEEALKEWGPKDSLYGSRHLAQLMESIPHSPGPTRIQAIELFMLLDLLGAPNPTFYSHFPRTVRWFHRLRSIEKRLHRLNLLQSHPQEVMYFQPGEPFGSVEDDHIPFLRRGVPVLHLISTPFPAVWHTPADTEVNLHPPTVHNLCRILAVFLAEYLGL
The term IC50 denotes the midpoint of a concentration-inhibition curve. The low end stands for greater potency, the high end for weaker potency. `O=C1C(O)C(c2c(F)cc(OCCC(F)F)cc2F)N1c1ccc2[nH]cnc2c1` (racemic) [Compound 8, (cis and racemic)-1-(1H-benzo[d]imidazol-5-yl)-4-(4-(3,3-difluoropropoxy)-2,6-difluorophenyl)-3-hydroxyazetidin-2-one] gave an IC50 of 2 to 25 nM.

Turning to `O=C1[C@H](C2CC2)[C@H](c2c(F)cc(-c3cn(C(F)(F)F)nn3)cc2F)N1c1ccc2[nH]cnc2c1` (single isomer, unassigned) [Compound 50B], the IC50 was < 2 nM.

As to `C=C1C(=O)N(c2ccc3[nH]cnc3c2)[C@H]1c1c(F)cc(OCCC(F)F)cc1F` (single isomer, unassigned) [Compound 22B], the IC50 is < 2 nM.

`CC1C(=O)N(c2ccc3[nH]cnc3c2)C1c1c(F)cc(OCCC(F)F)cc1F` (racemic) [Compound 7, 1-(1H-benzo[d]imidazol-5-yl)-4-(4-(3,3-difluoropropoxy)-2,6-difluorophenyl)-3-methylazetidin-2-one] returned an IC50 of 2 to 25 nM.

`C[C@@H]1C(=O)N(c2ccc3[nH]cnc3c2)[C@@H]1c1c(F)cc(OCC(C)(C)O)cc1F` (single isomer, unassigned) [Compound 32A] displayed an IC50 of 25 to 1000 nM.

On to `O=C1[C@H](C2CC2)[C@H](c2c(F)cc(-c3cn(C(F)(F)F)cn3)cc2F)N1c1ccc2[nH]cnc2c1` (single isomer, unassigned) [Compound 49B], for which the IC50 lay within 2 to 25 nM.

For `C[C@@H]1C(=O)N(c2ccc3[nH]cnc3c2)[C@H]1c1c(F)cc(-n2cc(C(F)(F)F)cn2)cc1F` (racemic) [Compound 28TR, (trans and racemic)-1-(1H-benzo[d]imidazol-5-yl)-4-(2,6-difluoro-4-(4-(trifluoromethyl)-1H-pyrazol-1-yl)phenyl)-3-methylazetidin-2-one], the IC50 fell in the range of 2 to 25 nM.

Compound `Cc1noc(C)c1-c1cc(F)c([C@H]2[C@@H](C3CC3)C(=O)N2c2ccc3[nH]cnc3c2)c(F)c1` (single isomer, unassigned) [Compound 64B] gave an IC50 of 2 to 25 nM.

`O=C1[C@@H](C2CC2)[C@@H](c2ccc(OCCC(F)F)nc2)N1c1ccc2[nH]cnc2c1` (single isomer, unassigned) [Compound 45A] gave a 50% inhibitory concentration (IC50) of 25 to 1000 nM.

For the compound `Cc1cc(-c2cnn(C(F)(F)F)c2)ccc1[C@@H]1[C@H](C2CC2)C(=O)N1c1ccc2[nH]cnc2c1` (single isomer, unassigned) [Compound 56A], the IC50 lay within 25 to 1000 nM.

As for `O=C1[C@H](C2COC2)[C@H](c2c(F)cc(-c3cnn(C(F)(F)F)c3)cc2F)N1c1ccc2[nH]cnc2c1` (single isomer, unassigned) [Compound 42B], the concentration for half-maximal inhibition (IC50) was < 2 nM.

Compound `O=C1[C@@H](C2CC2)[C@@H](c2c(F)cc(-c3cn(C(F)(F)F)nn3)cc2F)N1c1ccc2[nH]cnc2c1` (single isomer, unassigned) [Compound 50A] registered an IC50 of 25 to 1000 nM.

Compound `O=C1[C@@H](C2CC2)[C@@H](c2ccc(-c3cnn(C(F)(F)F)c3)cc2)N1c1ccc2[nH]cnc2c1` (single isomer, unassigned) [Compound 55A] registered an IC50 of 25 to 1000 nM.

As to `C=C1C(=O)N(c2ccc3[nH]cnc3c2)C1c1c(F)cc(OCCC(F)F)cc1F` (racemic) [Compound 22, (racemic)-1-(1H-benzo[d]imidazol-5-yl)-4-(4-(3,3-difluoropropoxy)-2,6-difluorophenyl)-3-methyleneazetidin-2-one], the IC50 is < 2 nM.

Turning to `O=C1[C@H](C2CC2)[C@H](c2c(F)cc(-n3cc(C(F)(F)F)nn3)cc2F)N1c1ccc2[nH]cnc2c1` (single isomer, unassigned) [Compound 59B], the IC50 was < 2 nM.

On to `C[C@H]1C(=O)N(c2ccc3[nH]cnc3c2)[C@H]1c1ccc(OCCC(F)F)nc1` (racemic) [Compound 23CR, (cis and racemic)-1-(1H-benzo[d]imidazol-5-yl)-4-(6-(3,3-difluoropropoxy)pyridin-3-yl)-3-methylazetidin-2-one], for which the IC50 is 2 to 25 nM.

Regarding `C[C@H]1C(=O)N(c2ccc3[nH]cnc3c2)[C@H]1c1c(F)cc(OCCC2CC2)cc1F` (racemic) [Compound 34CR, (Cis and racemic)-1-(1H-benzo[d]imidazol-5-yl)-4-(4-(2-cyclopropylethoxy)-2,6-difluorophenyl)-3-methylazetidin-2-one], the IC50 was < 2 nM.

`O=C1[C@H](C2CC2)[C@H](c2c(F)cc(-n3ncc(C(F)(F)F)n3)cc2F)N1c1ccc2[nH]cnc2c1` (single isomer, unassigned) [Compound 60B]: the IC50 was < 2 nM.

As to `O=C1[C@H](C2CC2)[C@H](c2c(F)cc(-c3ccn(C(F)(F)F)n3)cc2F)N1c1ccc2[nH]cnc2c1` (single isomer, unassigned) [Compound 47B], the IC50 is < 2 nM.

For the compound `C[C@@H]1C(=O)N(c2ccc3[nH]cnc3c2)[C@@H]1c1c(F)cc(N2CCC(F)(F)CC2)cc1F` (single isomer, unassigned) [Compound 30A], the IC50 is > 1000 nM.

Regarding `C[C@H]1C(=O)N(c2ccc3[nH]cnc3c2)[C@H]1c1c(F)cc(-c2cnn(C(F)F)c2)cc1F` (single isomer, unassigned) [Compound 17B], the IC50 was < 2 nM.

In the case of `Cn1cc(-c2cc(F)c(C3CC(=O)N3c3ccc4[nH]cnc4c3)c(F)c2)cn1` (racemic) [Compound 9, 1-(1H-benzo[d]imidazol-5-yl)-4-(2,6-difluoro-4-(1-methyl-1H-pyrazol-4-yl)phenyl)azetidin-2-one], the IC50 was in the range of 25 to 1000 nM.

`O=C1[C@@H](O)[C@@H](c2c(F)cc(OCCC(F)F)cc2F)N1c1ccc2[nH]cnc2c1` (single isomer, unassigned) [Compound 8A]: the IC50 is > 1000 nM.

For the compound `Cc1nc(-n2cnc(C(F)(F)F)c2)ccc1[C@H]1[C@@H](C2CC2)C(=O)N1c1ccc2[nH]cnc2c1` (single isomer, unassigned) [Compound 72B], the 50% inhibitory concentration (IC50) was < 2 nM.

Take `CC[C@H]1C(=O)N(c2ccc3[nH]cnc3c2)[C@H]1c1c(F)cc(-c2cnn(C(F)(F)F)c2)cc1F` (single isomer, unassigned) [Compound 51B]: the IC50 was < 2 nM.

On to `CN1CCN(c2cc(F)c(C3CC(=O)N3c3ccc4[nH]cnc4c3)c(F)c2)CC1` (racemic) [Compound 4, 1-(1H-benzo[d]imidazol-5-yl)-4-(2,6-difluoro-4-(4-methylpiperazin-1-yl)phenyl)azetidin-2-one], for which the IC50 is 2 to 25 nM.

As for `C[C@H]1C(=O)N(c2ccc3[nH]cnc3c2)[C@H]1c1c(F)cc(-c2cnn(C(F)(F)F)c2)cc1F` (single isomer, unassigned) [Compound 14B], the IC50 is < 2 nM.

On to `Cc1cc(-n2cnc(C(F)(F)F)c2)ccc1[C@H]1[C@@H](C2CC2)C(=O)N1c1ccc2[nH]cnc2c1` (single isomer, unassigned) [Compound 74B], for which the IC50 is < 2 nM.

`C[C@H]1C(=O)N(c2ccc3[nH]cnc3c2)[C@H]1c1c(F)cc(N2CCC(F)(F)C2)cc1F` (racemic) [Compound 12CR, (cis and racemic)-1-(1H-benzo[d]imidazol-5-yl)-4-(4-(3,3-difluoropyrrolidin-1-yl)-2,6-difluorophenyl)-3-methylazetidin-2-one] returned a half-maximal inhibitory concentration (IC50) of 2 to 25 nM.

As to `C[C@H]1C(=O)N(c2ccc3[nH]cnc3c2)[C@H]1c1c(F)cc(-n2cc(C(F)(F)F)cn2)cc1F` (racemic) [Compound 28CR, (cis and racemic)-1-(1H-benzo[d]imidazol-5-yl)-4-(2,6-difluoro-4-(4-(trifluoromethyl)-1H-pyrazol-1-yl)phenyl)-3-methylazetidin-2-one], the IC50 is 2 to 25 nM.

`O=C1N(c2ccc3[nH]cnc3c2)C(c2c(F)cc(OCCC(F)F)cc2F)C12CCC2` (racemic) [Compound 3, 2-(1H-benzo[d]imidazol-5-yl)-3-(4-(3,3-difluoropropoxy)-2,6-difluorophenyl)-2-azaspiro[3.3]heptan-1-one] gave an IC50 of 25 to 1000 nM.

As to `Cc1cc(-c2cnn(C(F)(F)F)c2)ncc1[C@H]1[C@@H](C2CC2)C(=O)N1c1ccc2[nH]cnc2c1` (single isomer, unassigned) [Compound 66B], the IC50 was < 2 nM.

Consider `Cc1oncc1-c1cc(F)c([C@H]2[C@@H](C3CC3)C(=O)N2c2ccc3[nH]cnc3c2)c(F)c1` (single isomer, unassigned) [Compound 63B], for which the IC50 is < 2 nM.

For the compound `Cc1nc(-c2ccc(C(F)(F)F)nn2)ccc1[C@@H]1[C@H](C2CC2)C(=O)N1c1ccc2[nH]cnc2c1` (single isomer, unassigned) [Compound 70A], the IC50 lay within 25 to 1000 nM.

Regarding `Cc1cc(-c2ccc(C(F)(F)F)nn2)ccc1[C@@H]1[C@H](C2CC2)C(=O)N1c1ccc2[nH]cnc2c1` (single isomer, unassigned) [Compound 67A], the IC50 was in the range of 25 to 1000 nM.

Take `O=C1[C@@H](C2COC2)[C@@H](c2c(F)cc(-c3cnn(C(F)(F)F)c3)cc2F)N1c1ccc2[nH]cnc2c1` (single isomer, unassigned) [Compound 42A]: the IC50 lay in the range of 25 to 1000 nM.

In the case of `C[C@H]1C(=O)N(c2ccc3[nH]cnc3c2)[C@H]1c1c(F)cc(OCC(C)(C)O)cc1F` (single isomer, unassigned) [Compound 32B], the IC50 is < 2 nM.

On to `C[C@H]1C(=O)N(c2ccc3[nH]cnc3c2)[C@H]1c1c(F)cc(-c2cnn(C)c2)cc1F` (single isomer, unassigned) [Compound 13B], for which the IC50 fell in the range of 2 to 25 nM.

On to `O=C1[C@H](C2CC2)[C@H](c2c(F)cc(-n3ccc(C(F)(F)F)n3)cc2F)N1c1ccc2[nH]cnc2c1` (single isomer, unassigned) [Compound 48B], for which the IC50 was < 2 nM.

Values taken from US11834440B2, “Beta-lactam derivatives for the treatment of diseases” (Insilico Medicine IP Limited, priority 2021, dated 2023).
